Assay results from US20140364422A1, “Aqueous Pharmaceutical Composition With Enhanced Stability” (NOVARTIS AG, priority 2012, published 2014).

How the values were obtained:
[1] = Solubility/clarity and freeze-thaw of 1.0% olopatadine in native guar with HPCD (Table 4-1); format: physicochemical; settings: 0.17% native guar, approximately 5% or more HPCD, physiologic pH of approximately 7
Experimental: (§1) Various concentrations of HPCD were used in the formulations. The formulations were filled in glass scintillation vials and in LDPE Drop-Tainers. The formulations were evaluated for clarity using UV light.

[2] = Solubility/clarity and freeze-thaw of 0.5% and 1.0% olopatadine in native guar with HPCD (Table 5-1); format: physicochemical; settings: physiologic pH of 7; for Olopatadine solubility: 0.17% native guar
Experimental: as §1
Formulation Compositions Containing 0.5% and 1.0% Olopatadine in 0.17% Native Guar and 1% to 6% Hydroxypropyl-Beta-Cyclodextrin (HPCD).

[3] = system: late phase allergy symptoms; experiment: Efficacy of olopatadine aqueous ophthalmic solutions in reducing late phase allergy symptoms; format: in vivo
Excerpt: Olopatadine is a known compound that can be obtained by the methods disclosed in U.S. Pat. No. 5,116,863, the entire contents of which are hereby incorporated by reference in the present specification for all purposes. Olopatadine is an antihistamine (as well as anticholinergic) and mast cell stabilizer. Olopatadine is a selective histamine H1 antagonist. When included, the composition of the present invention contains at least 0.1%, more typically at least 0.33% or 0.55%, even more typically at least 0.65% or 0.67%, still more typically at least 0.7%, but typically no greater than 1.5% more typically no greater than 1.0%, still more typically no greater than 0.8%, possibly no greater than 0.75% and even possibly no greater than 0.72% or 0.6% of olopatadine where concentrations of olopatadine typically represent concentrations of olopatadine in free base form if the olopatadine is added to the composition as a salt. […] Advantageously, for the composition of the present invention, lower concentrations (e.g., at least 0.50 w/v %, at least 0.55 w/v %, or at least 0.60 w/v %) may show significant improvements and even possibly statistically significant improvements in reducing late phase allergy symptoms.

## CN(C)CC/C=C1/c2ccccc2COc2ccc(CC(=O)O)cc21 [Olopatadine, (Z)-11-(3-dimethylaminopropylidene)-6,11-dihydro-dibenz-[b,e]oxepin-2-acetic acid]
[1]
  Olopatadine concentration solubilized: 1%
[2]; HPCD at or above approximately 2%
  Olopatadine solubility: 0.5%
[2]; HPCD at or above approximately 4%
  Olopatadine solubility: 1%
[2]; 0.5% Olopatadine together with 0.17% guar
  concentration of cyclodextrin that can solubilize Olopatadine: approximately 2%
[2]; 0.6% Olopatadine together with 0.17% guar
  concentration of cyclodextrin that can solubilize Olopatadine: ~4%
[3]
  olopatadine concentration at which efficacy in reducing late phase allergy symptoms begins to show improvement: greater than 0.5 w/v %
[3]; about 0.7 w/v % and above
  olopatadine concentration at which statistically significant improvements in reducing late phase allergy symptoms begin: at least 0.7 w/v %
